Measurements published in PMC9945734 (BMC Medicine, 2023).

System: PC-3-KQ and PC-3-KR cells
Assay: RNA-sequencing and differential gene expression
Format: cell-based, human
Conditions: for logFC: KQ-Control vs KQ-NTZ

## CC(=O)Oc1ccccc1C(=O)Nc1ncc([N+](=O)[O-])s1 [Nitazoxanide]
Gene ANKRD36C
  change of NTZ treatment: down
Gene ANKRD37
  logFC: 0.9125
Gene ANXA8
  logFC: 0.7906
Gene ANXA8L1
  change of NTZ treatment: down
Gene ARG2
  change of NTZ treatment: up
  logFC: 2.138
Gene ARL10
  change of NTZ treatment: down
Gene ARSK
  change of NTZ treatment: up
  logFC: 0.7653
Gene ASB2
  change of NTZ treatment: down
Gene ATP2A3
  logFC: 1.284
Gene BRINP2
  change of NTZ treatment: down
Gene BTBD11
  change of NTZ treatment: down
Gene BTN3A3
  change of NTZ treatment: up
Gene CAPN12
  logFC: 0.767
Gene CAPSL
  change of NTZ treatment: down
Gene CCNA1
  logFC: 0.9046
Gene CEP19
  change of NTZ treatment: down
Gene CFB
  logFC: 0.9221
Gene CNTNAP3B
  change of NTZ treatment: down
Gene COL4A3
  logFC: 2.258
Gene COL4A4
  logFC: 0.8129
Gene CSF1R
  change of NTZ treatment: up
Gene CXCL5
  change of NTZ treatment: down
Gene CYP1B1
  change of NTZ treatment: up
Gene CYP2E1
  change of NTZ treatment: up
Gene CYP8B1
  change of NTZ treatment: up
  logFC: 1.238
Gene CYSTM1
  change of NTZ treatment: up
  logFC: 0.6246
Gene DEPTOR
  change of NTZ treatment: down
Gene DISP1
  change of NTZ treatment: up
  logFC: 0.6346
Gene DMPK
  change of NTZ treatment: up
  logFC: 0.6319
Gene DRP2
  change of NTZ treatment: down
Gene ECM2
  change of NTZ treatment: down
Gene ESPN
  change of NTZ treatment: up
Gene FA2H
  logFC: 1.574
Gene FAM83D
  change of NTZ treatment: down
Gene FAM178B
  logFC: 1.11
Gene FAM186B
  change of NTZ treatment: down
Gene FANCI
  change of NTZ treatment: down
Gene FANCL
  change of NTZ treatment: down
Gene FCGBP
  change of NTZ treatment: down
Gene FER1L6
  logFC: 0.6222
Gene FIBCD1
  logFC: 1.28
Gene FLI1
  change of NTZ treatment: down
Gene FLRT1
  change of NTZ treatment: down
Gene FRY
  change of NTZ treatment: up
  logFC: 1.204
Gene FSD2
  change of NTZ treatment: down
Gene FTH1
  logFC: 1.218
Gene FUT3
  logFC: 0.7626
Gene FXYD3
  logFC: 0.8317
Gene FZD4
  change of NTZ treatment: down
Gene GALNT12
  logFC: 0.8862
Gene GCNT3
  change of NTZ treatment: up
  logFC: 2.701
Gene GDPD3
  logFC: 1.109
Gene HAS3
  change of NTZ treatment: down
Gene HSPB8
  change of NTZ treatment: up
  logFC: 1.784
Gene IFITM10
  change of NTZ treatment: up
Gene IGDCC4
  change of NTZ treatment: up
  logFC: 1.493
Gene IGF2BP1
  change of NTZ treatment: down
Gene IL1RN
  change of NTZ treatment: up
Gene IL36RN
  logFC: 0.6398
Gene INHBA
  change of NTZ treatment: down
Gene KDELR2
  change of NTZ treatment: up
  logFC: 0.621
Gene KIAA0319
  logFC: 2.322
Gene KIAA1755
  change of NTZ treatment: down
Gene KLHDC7B
  logFC: 1.286
Gene LOC105374299
  logFC: 1.732
Gene LONRF2
  change of NTZ treatment: down
Gene LRRK1
  logFC: 0.8715
Gene LTB
  change of NTZ treatment: down
Gene MAP2
  change of NTZ treatment: up
  logFC: 0.8904
Gene MCM4
  change of NTZ treatment: down
Gene MEF2C
  change of NTZ treatment: up
Gene MEOX1
  change of NTZ treatment: down
Gene METRNL
  change of NTZ treatment: up
Gene MFSD2A
  logFC: 0.6152
Gene MINAR1
  logFC: 1.165
Gene MMP9
  change of NTZ treatment: down
Gene MROH8
  change of NTZ treatment: down
Gene MUC4
  change of NTZ treatment: up
  logFC: 1.575
Gene MVP
  logFC: 0.7778
Gene MYH7B
  change of NTZ treatment: down
Gene NAV1
  change of NTZ treatment: up
  logFC: 1.226
Gene NECTIN4
  logFC: 1.852
Gene NKD1
  change of NTZ treatment: down
Gene NLRC5
  logFC: 0.8508
Gene NR4A2
  change of NTZ treatment: up
Gene NT5E
  change of NTZ treatment: up
  logFC: 0.5964
Gene PCDH18
  change of NTZ treatment: down
Gene PDGFA
  logFC: 0.7622
Gene PDZK1
  change of NTZ treatment: up
  logFC: 0.8579
Gene PGAM4
  change of NTZ treatment: down
Gene PHOSPHO2
  change of NTZ treatment: down
Gene PIANP
  change of NTZ treatment: down
Gene PKIA
  logFC: 0.8539
Gene PLEKHG1
  change of NTZ treatment: up
Gene PRKAR1B
  logFC: 0.8008
Gene PRKDC
  change of NTZ treatment: down
Gene PROS1
  change of NTZ treatment: up
  logFC: 0.9134
Gene PRR16
  change of NTZ treatment: down
Gene PRRT4
  change of NTZ treatment: down
Gene RBL1
  change of NTZ treatment: down
Gene RMDN2
  logFC: 0.9051
Gene RND1
  change of NTZ treatment: up
Gene RP1L1
  change of NTZ treatment: down
Gene S100A6
  change of NTZ treatment: up
  logFC: 0.6427
Gene SAT1
  logFC: 0.7952
Gene SDCBP2
  logFC: 1.238
Gene SERPINA5
  change of NTZ treatment: down
Gene SERPINB3
  change of NTZ treatment: down
Gene SERPINB4
  change of NTZ treatment: down
Gene SERPIND1
  change of NTZ treatment: down
Gene SGK3
  change of NTZ treatment: up
Gene SHISA3
  change of NTZ treatment: down
Gene SLC41A2
  change of NTZ treatment: up
  logFC: 0.8444
Gene SLFN11
  change of NTZ treatment: up
Gene SMCO4
  change of NTZ treatment: up
Gene SPOCK2
  change of NTZ treatment: up
  logFC: 1.756
Gene SRPX
  logFC: 0.5983
Gene STK32A
  logFC: 1.274
Gene SYN3
  logFC: 1.227
Gene TBX2
  logFC: 0.6055
Gene TCN1
  change of NTZ treatment: down
Gene TJP3
  change of NTZ treatment: up
  logFC: 0.6134
Gene TMEM140
  change of NTZ treatment: up
Gene TMEM269
  change of NTZ treatment: up
  logFC: 0.7715
Gene TMOD1
  logFC: 1.793
Gene TMPRSS2
  logFC: 1.205
Gene TNFRSF6B
  change of NTZ treatment: down
Gene TNFRSF11B
  change of NTZ treatment: down
Gene TNFSF14
  logFC: 1.643
Gene TRIM31
  change of NTZ treatment: up
  logFC: 1.207
Gene TTC9
  change of NTZ treatment: up
Gene TTC30B
  change of NTZ treatment: down
Gene UGT2B7
  logFC: 1.608
Gene WHRN
  logFC: 0.869
Gene WNT4
  logFC: 1.78
Gene WNT9A
  change of NTZ treatment: up
Gene ZNF302
  change of NTZ treatment: down
